This note sets out measurements from patent publication US7482461B2, “Sulfonyl-3-heterocyclylindazole derivatives as 5-hydroxytryptamine-6 ligands” (Wyeth, priority 2006, dated 2009).

Counter-ions that a name gives are not always drawn.

In this experiment the target is human cloned 5-HT6 receptors (Homo sapiens, UniProt P50406).
Sequence of human cloned 5-HT6 receptors (P50406 whole entry): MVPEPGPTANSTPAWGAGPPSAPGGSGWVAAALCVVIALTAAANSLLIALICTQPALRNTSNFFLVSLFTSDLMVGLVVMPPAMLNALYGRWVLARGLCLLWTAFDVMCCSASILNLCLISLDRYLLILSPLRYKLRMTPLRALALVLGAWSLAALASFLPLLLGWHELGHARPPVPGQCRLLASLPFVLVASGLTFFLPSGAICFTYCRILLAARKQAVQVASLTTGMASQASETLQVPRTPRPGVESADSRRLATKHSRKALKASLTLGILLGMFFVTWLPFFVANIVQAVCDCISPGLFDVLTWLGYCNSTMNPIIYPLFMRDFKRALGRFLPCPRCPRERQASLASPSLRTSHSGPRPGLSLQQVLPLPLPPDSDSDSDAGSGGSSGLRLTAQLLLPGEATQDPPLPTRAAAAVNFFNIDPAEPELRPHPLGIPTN
For `COc1ccc(S(=O)(=O)c2ccc3[nH]nc(C4CCN(C)CC4)c3c2)cc1` [Example 14], the Ki (as a rule, the equilibrium dissociation constant of an inhibitor or competing ligand from its target) turned out to be 123 nM.

Molecule `CN1CCC(c2n[nH]c3ccc(S(=O)(=O)c4cccc(Cl)c4)cc23)CC1` [Example 7, 5-[(3-chlorophenyl)sulfonyl]-3-(1-methylpiperidin-4-yl)-1H-indazole] displayed a Ki of 19 nM.

Molecule `CN1CCC(c2n[nH]c3ccc(S(=O)(=O)c4ccc(F)cc4)cc23)CC1` [Example 8, 5-[(4-fluorophenyl)sulfonyl]-3-(1-methylpiperidin-4-yl)-1H-indazole] showed a Ki of 66 nM.

In turn, `CN1CCC(c2n[nH]c3ccc(S(=O)(=O)c4ccc(C(F)(F)F)cc4)cc23)CC1` [Example 10, 3-(1-methylpiperidin-4-yl)-5-{[4-(trifluoromethyl)phenyl]sulfonyl}-1H-indazole] displayed a Ki of 46 nM.

In the case of `CN1CCC(c2n[nH]c3ccc(S(=O)(=O)c4ccc(OC(F)(F)F)cc4)cc23)CC1` [Example 11, 3-(1-methylpiperidin-4-yl)-5-{[4-(trifluoromethoxy)phenyl]sulfonyl}-1H-indazole], the affinity corresponds to a Ki of 48 nM.

`CN1CCC(c2n[nH]c3ccc(S(=O)(=O)c4ccccc4)cc23)CC1` [Example 5, 3-(1-methylpiperidin-4-yl)-5-(phenylsulfonyl)-1H-indazole]: the affinity, expressed as Ki, was 55 nM.

With `CN1CCC(c2n[nH]c3ccc(S(=O)(=O)c4ccc5ccccc5c4)cc23)CC1` [Example 13, 3-(1-methylpiperidin-4-yl)-5-(2-naphthylsulfonyl)-1H-indazole], the inhibitory constant (Ki) was determined as 9.6 nM.

As for `Cc1cccc(S(=O)(=O)c2ccc3[nH]nc(C4CCN(C)CC4)c3c2)c1` [Example 9, 5-[(3-methylphenyl)sulfonyl]-3-(1-methylpiperidin-4-yl)-1H-indazole], the affinity, expressed as Ki, was 50 nM.

Molecule `CN1CCC(c2n[nH]c3ccc(S(=O)(=O)c4cccc5ccccc45)cc23)CC1` [Example 4, 3-(1-Methylpiperidin-4-yl)-5-(1-naphthylsulfonyl)-1H-indazole hydrochloride] showed a Ki of 3.8 nM.

Molecule `CC(C)c1ccc(S(=O)(=O)c2ccc3[nH]nc(C4CCN(C)CC4)c3c2)cc1` [Example 12, 5-[4-(isopropylphenyl)sulfonyl]-3-(1-methylpiperidin-4-yl)-1H-indazole] registered a Ki of 14 nM.

Molecule `CN1CCC(c2n[nH]c3ccc(S(=O)(=O)c4cccc(F)c4)cc23)CC1` [Example 6, 5-[(3-fluorophenyl)sulfonyl]-3-(1-methylpiperidin-4-yl)-1H-indazole] gave a Ki of 93 nM.
